Structures can show the parent of a compound that is named as a salt. One block for each molecule: values may come before it.
What was measured:
Protein smoothened [1] = molecular target: Protein smoothened (Mus musculus, UniProt P56726); assay: Antagonist activity at mouse SMO
Protein smoothened [2] = molecular target: Protein smoothened (Homo sapiens, UniProt Q99835); assay: Antagonist activity at human SMO
[3] = molecular target: Beta-2 adrenergic receptor (Homo sapiens, UniProt P07550); assay: Agonist activity at Adrenergic beta2 receptor (unknown origin); assay type: functional
Chain of Beta-2 adrenergic receptor (P07550 whole entry): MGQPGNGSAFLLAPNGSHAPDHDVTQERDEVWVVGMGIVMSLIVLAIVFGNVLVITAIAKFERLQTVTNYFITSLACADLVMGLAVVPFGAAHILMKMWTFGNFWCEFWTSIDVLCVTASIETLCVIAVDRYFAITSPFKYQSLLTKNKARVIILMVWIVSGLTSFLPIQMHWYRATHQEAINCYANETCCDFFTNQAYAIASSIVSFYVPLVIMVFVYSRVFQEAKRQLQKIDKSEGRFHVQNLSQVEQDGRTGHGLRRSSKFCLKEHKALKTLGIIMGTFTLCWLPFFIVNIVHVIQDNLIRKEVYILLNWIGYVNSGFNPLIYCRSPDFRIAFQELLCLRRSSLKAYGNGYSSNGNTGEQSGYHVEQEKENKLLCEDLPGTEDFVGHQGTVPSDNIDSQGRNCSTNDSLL

[4] = molecular target: Nuclear factor NF-kappa-B complex (Homo sapiens, UniProt P19838+Q00653+Q04206); assay: Inhibition of NF-kappaB (unknown origin); assay type: protein-complex assay
Chain of Nuclear factor NF-kappa-B complex (P19838 1-433 limits assumed): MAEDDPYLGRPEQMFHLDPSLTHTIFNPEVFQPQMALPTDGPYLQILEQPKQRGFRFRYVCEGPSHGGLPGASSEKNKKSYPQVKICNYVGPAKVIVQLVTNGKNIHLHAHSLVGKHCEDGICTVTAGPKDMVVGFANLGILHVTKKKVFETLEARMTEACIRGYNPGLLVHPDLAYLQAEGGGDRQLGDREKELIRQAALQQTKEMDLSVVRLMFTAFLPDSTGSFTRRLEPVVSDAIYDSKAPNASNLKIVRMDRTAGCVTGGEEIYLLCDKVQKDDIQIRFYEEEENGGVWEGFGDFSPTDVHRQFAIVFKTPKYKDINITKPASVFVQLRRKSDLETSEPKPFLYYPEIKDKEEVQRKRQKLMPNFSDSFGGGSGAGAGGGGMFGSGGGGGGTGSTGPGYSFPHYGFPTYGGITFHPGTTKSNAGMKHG
Chain of Nuclear factor NF-kappa-B complex (Q00653 1-454 limits assumed): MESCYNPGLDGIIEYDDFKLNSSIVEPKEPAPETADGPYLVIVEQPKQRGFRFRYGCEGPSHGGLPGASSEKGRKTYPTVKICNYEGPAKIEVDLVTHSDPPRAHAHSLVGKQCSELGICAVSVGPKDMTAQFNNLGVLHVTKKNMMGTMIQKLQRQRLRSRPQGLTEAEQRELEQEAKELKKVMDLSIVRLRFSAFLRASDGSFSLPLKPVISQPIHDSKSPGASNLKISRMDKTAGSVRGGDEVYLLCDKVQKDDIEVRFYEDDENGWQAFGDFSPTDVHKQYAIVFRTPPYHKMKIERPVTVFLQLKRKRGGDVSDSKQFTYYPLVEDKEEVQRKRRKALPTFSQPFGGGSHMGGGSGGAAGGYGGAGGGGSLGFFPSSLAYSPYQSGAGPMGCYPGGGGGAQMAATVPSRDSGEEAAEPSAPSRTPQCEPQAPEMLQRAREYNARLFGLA
Chain of Nuclear factor NF-kappa-B complex (Q04206 whole entry): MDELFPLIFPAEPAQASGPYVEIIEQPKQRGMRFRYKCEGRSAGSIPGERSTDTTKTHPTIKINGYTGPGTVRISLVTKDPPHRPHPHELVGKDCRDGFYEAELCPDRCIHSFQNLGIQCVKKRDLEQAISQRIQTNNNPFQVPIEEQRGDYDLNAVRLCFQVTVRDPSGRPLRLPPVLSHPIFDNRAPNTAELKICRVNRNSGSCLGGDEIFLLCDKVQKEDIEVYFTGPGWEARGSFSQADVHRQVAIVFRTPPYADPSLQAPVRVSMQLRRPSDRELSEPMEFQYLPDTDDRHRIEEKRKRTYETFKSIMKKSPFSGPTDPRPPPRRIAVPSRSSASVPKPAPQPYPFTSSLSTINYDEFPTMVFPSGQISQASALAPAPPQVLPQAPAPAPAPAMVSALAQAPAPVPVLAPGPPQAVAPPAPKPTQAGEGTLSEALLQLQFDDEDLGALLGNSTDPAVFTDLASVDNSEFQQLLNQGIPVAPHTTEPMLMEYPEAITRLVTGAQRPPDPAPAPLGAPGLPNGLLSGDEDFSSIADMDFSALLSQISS

[5] = Inhibition of 20s proteasome beta1 (unknown origin) mediated […] activity; parameters: species or system Homo sapiens
[6] = Inhibition of 20s proteasome beta2 (unknown origin) mediated […] activity; parameters: species or system Homo sapiens
[7] = test system: Human immunodeficiency virus 2; assay: Antiviral activity against HIV-2

Chain of Protein smoothened (Mus musculus, UniProt P56726) (P56726 whole entry): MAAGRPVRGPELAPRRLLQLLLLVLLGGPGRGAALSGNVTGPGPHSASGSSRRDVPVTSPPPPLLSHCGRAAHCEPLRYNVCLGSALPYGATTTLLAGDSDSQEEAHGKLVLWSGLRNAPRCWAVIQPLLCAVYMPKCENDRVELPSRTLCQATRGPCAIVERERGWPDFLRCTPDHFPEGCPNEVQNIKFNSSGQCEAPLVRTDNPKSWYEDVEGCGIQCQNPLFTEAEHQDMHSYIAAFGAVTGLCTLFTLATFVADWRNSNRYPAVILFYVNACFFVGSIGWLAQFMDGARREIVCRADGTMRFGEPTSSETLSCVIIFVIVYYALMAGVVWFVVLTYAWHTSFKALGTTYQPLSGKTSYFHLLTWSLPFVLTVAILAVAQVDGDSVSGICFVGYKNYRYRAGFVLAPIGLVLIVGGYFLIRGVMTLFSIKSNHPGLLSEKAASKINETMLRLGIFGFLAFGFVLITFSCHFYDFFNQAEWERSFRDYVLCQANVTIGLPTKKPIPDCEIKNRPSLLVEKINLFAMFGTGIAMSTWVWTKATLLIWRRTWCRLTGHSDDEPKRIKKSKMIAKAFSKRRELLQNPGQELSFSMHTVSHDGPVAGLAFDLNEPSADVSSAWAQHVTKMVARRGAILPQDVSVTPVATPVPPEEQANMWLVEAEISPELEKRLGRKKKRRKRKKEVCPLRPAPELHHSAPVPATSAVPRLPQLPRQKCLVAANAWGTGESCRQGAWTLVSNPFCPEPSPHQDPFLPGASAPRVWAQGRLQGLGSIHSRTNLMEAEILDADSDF
Chain of Protein smoothened (Homo sapiens, UniProt Q99835) (Q99835 whole entry): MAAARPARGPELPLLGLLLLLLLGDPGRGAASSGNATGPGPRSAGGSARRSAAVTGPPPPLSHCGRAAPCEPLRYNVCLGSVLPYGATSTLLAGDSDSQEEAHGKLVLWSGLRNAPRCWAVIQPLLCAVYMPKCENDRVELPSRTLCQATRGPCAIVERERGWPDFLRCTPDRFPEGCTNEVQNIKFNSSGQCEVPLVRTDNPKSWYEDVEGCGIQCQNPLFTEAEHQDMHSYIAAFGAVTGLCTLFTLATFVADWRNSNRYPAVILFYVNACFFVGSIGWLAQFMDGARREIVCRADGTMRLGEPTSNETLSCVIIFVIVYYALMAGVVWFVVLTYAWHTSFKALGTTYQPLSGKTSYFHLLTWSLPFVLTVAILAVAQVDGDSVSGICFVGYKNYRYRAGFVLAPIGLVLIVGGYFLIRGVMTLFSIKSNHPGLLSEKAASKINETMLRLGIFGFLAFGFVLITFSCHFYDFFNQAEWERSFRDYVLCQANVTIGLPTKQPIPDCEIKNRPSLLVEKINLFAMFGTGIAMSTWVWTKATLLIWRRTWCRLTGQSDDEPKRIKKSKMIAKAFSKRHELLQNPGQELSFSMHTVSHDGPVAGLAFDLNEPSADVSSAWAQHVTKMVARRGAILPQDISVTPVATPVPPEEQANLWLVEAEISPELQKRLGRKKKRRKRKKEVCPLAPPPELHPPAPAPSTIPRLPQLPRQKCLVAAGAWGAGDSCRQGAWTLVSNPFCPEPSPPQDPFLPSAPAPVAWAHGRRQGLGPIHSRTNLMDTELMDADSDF

IC50 (Protein smoothened [1]): 1.3 nM | IC50 (Protein smoothened [2]): 2.5 nM
SMILES: Cc1c(C(=O)Nc2ccc(N3C[C@@H](C)O[C@@H](C)C3)nc2)cccc1-c1ccc(OC(F)(F)F)cc1 [SONIDEGIB PHOSPHATE]

EC50 [3]: 2.2 nM | IC50 [4]: 0.5 nM
SMILES: C[C@@H]1C[C@H]2[C@@H]3CCC4=CC(=O)C=C[C@]4(C)[C@@]3(F)[C@@H](O)C[C@]2(C)[C@@]1(O)C(=O)CO [DEXAMETHASONE]

SMILES: CC(C)C[C@H](NC(=O)CNC(=O)c1cc(Cl)ccc1Cl)B1OC(=O)C(CC(=O)O)(CC(=O)O)O1 [IXAZOMIB CITRATE]
IC50 [5]: 31 nM | IC50 [6]: 3500 nM

EC50 [7]: 1 nM
SMILES: c1cc(CN2CCCNCCNCCCNCC2)ccc1CN1CCCNCCNCCCNCC1 [PLERIXAFOR]

Source: ChEMBL document CHEMBL5620349, “Recent advance of small-molecule drugs for clinical treatment of multiple myeloma” (Eur J Med Chem, 2023)
